The values that follow are results of earlier work, collected in US10172912B2, “Chemical induction of lactation in prepubescent non-human mammals” (priority 2009, dated 2019).

The test system of one data set is gravid horses. The following applies: for udder development: gravid equine mares with endophyte-infected ryegrass toxicity, thirty days before foaling.
A further data set has as its system non-pregnant mares. The following applies: altrenogest/estradiol pessary week 1, estradiol pessary week 2 with twice daily drug.

As for `O=c1[nH]c2ccccc2n1CCCN1CCC(n2c(=O)[nH]c3cc(Cl)ccc32)CC1` [Domperidone], in the data set on plasma proteins, the “bound to plasma proteins” value is given as 91-93%. In addition, the udder development entry in the data set with gravid horses is recorded as “increases udder development”. In the data set on gravid horses (gravid horses with endophyte-infected ryegrass toxicity, administration for at least eighteen days), the lactation result was “increase lactation”.

As to `CCN1CCCC1CNC(=O)c1cc(S(N)(=O)=O)ccc1OC` (centres unmarked) [sulpiride], in the data set on non-pregnant mares, the induced lactation volume was approximately 1 liter per mare/day. Besides, in the data set with gravid horses, the udder development entry was “increases udder development”.
